Data from US12022832B2, “Compounds and methods for treating nematode infections” (The Governing Council of The University of Toronto, priority 2018, dated 2024).
Where two headings read alike, the source gives them in different places.

Key:
M. incognita (J2) = test: M. incognita J2 viability in vitro; format: in vivo, Meloidogyne incognita; settings: assay done using 45 uM; for M. incognita (J2 viability in vitro): concentration giving >20% and <80% death: 48 or 72 hours, other compounds
C. elegans (L1) = test: C. elegans L1 viability, three day protocol; format: in vivo, Caenorhabditis elegans; settings: for EC (80% dead): Caenorhabditis elegans, read-out: C. elegans (L1 viability): lowest concentration tested in which at least 80% of animals were dead; for C. elegans (L1 viability): lowest concentration tested in which greater than 20% of animals were dead: compounds 55-11, 55-12-21, 55-12-23
C. elegans = C. elegans acute motor (rubber-band, convulsion/paralysis) phenotype on solid substrate; format: in vivo, Caenorhabditis elegans; settings: for C. elegans acute motor phene: concentration at which 10-50% of the animals exhibit convulsion/paralysis phenotypes / C. elegans acute motor phene: lowest concentration at which 50% of the young adult animals exhibit convulsion/paralysis phenotypes: solid substrate; for C. elegans acute motor phene: concentration at which 10-50% of the animals exhibit convulsion/paralysis phenotypes: 80 minutes, compounds 55-12-6, 55-12-9, 55-12-12, 55-12-21, 55-12-23; for C. elegans acute motor phene: lowest concentration at which 50% of the young adult animals exhibit convulsion/paralysis phenotypes: 80 minutes of incubation
Excerpt: Worms are scored for the indicated phenotype (see legend); convulsions along the circumferential axis is characterized as the ‘shaker’ phenotype in C. elegans; convulsions along the anterior-posterior axis is characterized as the ‘rubber-band’ phenotype in C. elegans. 18 young-adult animals were scored at each time-point for rubber-band (animals spontaneously contract or do so upon touch on the nose with a platinum wire), hyperactive movement (observing rapid lateral nose movement) and shaker (spontaneous circumferential rotations). […] Data are showing the mean number of animals with each phenotype.
If a penetrant phenotype is observed, a dose-response analysis is performed; the EC50 is shown.
Each compound was added to the MYOB substrate before pouring to achieve desired concentration after diffusion through the media. The final concentration of dimethyl sulfoxide (DMSO) in each of the wells was […]. Young adult or fourth-staged larval worms are transferred into each well using a platinum wire pick.
˜25 young adult animals of each indicated strain were picked using a platinum wire onto 2% MYOB agar containing the indicated drug condition with 1% DMSO. […] 18 animals were scored per trial; data are the mean response of 2-3 replicates showing the standard error of the mean.

M. incognita (eggs) = test: M. incognita egg-hatch assay; format: in vivo, Meloidogyne incognita; settings: 45 uM of each compound, ~50 eggs per well; effect threshold not stated
P. hermaphrodita (L1) = test: P. hermaphrodita L1 viability; format: in vivo, Phasmarhabditis hermaphrodita; settings: 72 hours; for P. hermaphrodita (L1 viability): lowest concentration tested in which at least 80% of animals were dead: relative to no-drug controls; for P. hermaphrodita (L1 viability): lowest concentration tested in which greater than 20% of animals were dead: compounds 55-6, 55-12-20, 55-12-22
C. elegans (adult) = test: C. elegans adult viability; format: in vivo, Caenorhabditis elegans; settings: 72 hours, relative to no-drug controls
C. elegans (dauer) = test: C. elegans dauer viability; format: in vivo, Caenorhabditis elegans; settings: relative to no-drug controls; for C. elegans (dauer viability): lowest concentration tested in which at least 80% of animals were dead: 72 hours
P. pacificus (L1) = test: P. pacificus L1 viability; format: in vivo, Pristionchus pacificus; settings: 72 hours; for P. pacificus (L1 viability): lowest concentration tested in which at least 80% of animals were dead: relative to no-drug controls
M. incognita = M. incognita Quick Soil Test (tomato); format: in vivo, Meloidogyne incognita; settings: 45 uM, ~2000 J2 per tomato plant, worms in soil 4 days; for M. incognita (Quick Soil Test): concentration giving >80% killing: J2s counted in root tissue; for M. incognita (Quick Soil Test): concentration giving 10-20% killing: other compounds
[1] = 72 hours, relative to no-drug controls

Compound	EC (80% dead) (C. elegans (L1); [1]) [µM]	M. incognita (J2 viability in vitro): concentration giving >20% and <80% death (M. incognita (J2))	M. incognita (Egg Hatch Rate) (M. incognita (eggs))	C. elegans (adult viability): lowest concentration tested in which at least 80% of animals were dead (C. elegans (adult))	C. elegans (dauer viability): lowest concentration tested in which at least 80% of animals were dead (C. elegans (dauer))	also measured
CCCc1ccc(-c2ccc(OC(F)F)cc2)cn1 [IIIaa (wact-55-12-7), 5-(4-(difluoromethoxy)phenyl)-2-propylpyridine]	30	–	–	–	–	M. incognita (J2 viability in vitro): concentration giving >80% death (M. incognita (J2); 48 or 72 hours of incubation): 45 µM
CCCc1ccc(-c2ccc(OC(F)F)cn2)cc1 [IIIbb (wact-55-12-8), 5-(difluoromethoxy)-2-(4-propylphenyl)pyridine]	–	np	–	–	–	EC (80% dead) (C. elegans (L1); 72 h): 60 µM
CCCc1ccc(-c2ccc(OC(F)F)nc2)cc1 [IIIcc (wact-55-12-9), 2-(difluoromethoxy)-5-(4-propylphenyl)pyridine]	–	np	np	–	–	EC (80% dead) (C. elegans (L1); 72 h): 60 µM; C. elegans acute motor phene: concentration at which 10-50% of the animals exhibit convulsion/paralysis phenotypes (C. elegans): 60 μM
CCc1ccc(-c2ccc(OC(F)F)cc2)nc1 [IIIdd (wact-55-12-10), 2-(4-(difluoromethoxy)phenyl)-5-ethylpyridine]	30	–	–	np	30 µM	P. hermaphrodita (L1 viability): lowest concentration tested in which at least 80% of animals were dead (P. hermaphrodita (L1)): 15 µM; P. pacificus (L1 viability): lowest concentration tested in which at least 80% of animals were dead (P. pacificus (L1)): 15 µM
Cc1ccc(-c2ccc(OC(F)F)cc2)nc1 [IIIee (wact-55-12-11), 2-(4-(difluoromethoxy)phenyl)-5-methylpyridine]	60	np	–	–	–	–
FC(F)Oc1ccc(-c2ccccn2)cc1 [IIIff (wact-55-12-12), 2-(4-(difluoromethoxy)phenyl)pyridine]	–	45 µM	–	np	np	P. hermaphrodita (L1 viability): lowest concentration tested in which at least 80% of animals were dead (P. hermaphrodita (L1)): 60 µM; C. elegans (L1 viability): lowest concentration tested in which at least 80% of animals were dead (C. elegans (L1); [1]): np; C. elegans acute motor phene: concentration at which 10-50% of the animals exhibit convulsion/paralysis phenotypes (C. elegans): 60 μM; P. pacificus (L1 viability): lowest concentration tested in which at least 80% of animals were dead (P. pacificus (L1)): 60 µM; M. incognita (Quick Soil Test): concentration giving >80% killing (M. incognita): 45 µM
CC#Cc1ccc(-c2ccc(OC(F)F)cc2)nc1 [IIIhh (wact-55-12-14), 2-(4-(difluoromethoxy)phenyl)-5-(prop-1-yn-1-yl)pyridine]	7.5	np	–	–	–	–
NCc1ccc(-c2ccc(OC(F)F)cc2)nc1 [IIIkk (wact-55-12-17), (6-(4-(difluoromethoxy)phenyl)pyridin-3-yl)methanamine]	–	np	np	–	–	C. elegans (L1 viability): lowest concentration tested in which at least 80% of animals were dead (C. elegans (L1); [1]): np; C. elegans acute motor phene: lowest concentration at which 50% of the young adult animals exhibit convulsion/paralysis phenotypes (C. elegans): np; M. incognita (Hatching Mobility) (M. incognita (eggs)): np
CCCc1cccc(-c2ccc(OC(F)F)cc2)n1 [IIInn (wact-55-12-20), 2-(4-(difluoromethoxy)phenyl)-6-propylpyridine]	–	–	–	np	np	P. hermaphrodita (L1 viability): lowest concentration tested in which greater than 20% of animals were dead (P. hermaphrodita (L1)): 60 µM; C. elegans (L1 viability): lowest concentration tested in which at least 80% of animals were dead (C. elegans (L1); [1]): np; C. elegans acute motor phene: lowest concentration at which 50% of the young adult animals exhibit convulsion/paralysis phenotypes (C. elegans): np; P. pacificus (L1 viability): lowest concentration tested in which greater than 20% of animals were dead (P. pacificus (L1); compound 55-12-20): 30 µM
CCCc1ccnc(-c2ccc(OC(F)F)cc2)c1 [IIIoo (wact-55-12-21), 2-(4-(difluoromethoxy)phenyl)-4-propylpyridine]	–	np	np	np	np	P. hermaphrodita (L1 viability): lowest concentration tested in which at least 80% of animals were dead (P. hermaphrodita (L1)): 30 µM; C. elegans (L1 viability): lowest concentration tested in which greater than 20% of animals were dead (C. elegans (L1); [1]): 60 µM; C. elegans acute motor phene: concentration at which 10-50% of the animals exhibit convulsion/paralysis phenotypes (C. elegans): 60 μM; P. pacificus (L1 viability): lowest concentration tested in which at least 80% of animals were dead (P. pacificus (L1)): 30 µM; M. incognita (Quick Soil Test): concentration giving >80% killing (M. incognita): 45 µM
CCCc1cccnc1-c1ccc(OC(F)F)cc1 [IIIpp (wact-55-12-22), 2-(4-(difluoromethoxy)phenyl)-3-propylpyridine]	–	–	–	np	np	P. hermaphrodita (L1 viability): lowest concentration tested in which greater than 20% of animals were dead (P. hermaphrodita (L1)): 60 µM; C. elegans (L1 viability): lowest concentration tested in which at least 80% of animals were dead (C. elegans (L1); [1]): np; C. elegans acute motor phene: lowest concentration at which 50% of the young adult animals exhibit convulsion/paralysis phenotypes (C. elegans): np; P. pacificus (L1 viability): lowest concentration tested in which at least 80% of animals were dead (P. pacificus (L1)): np
CCCc1ccc(-c2cccc(OC(F)F)c2)nc1 [IIIqq (wact-55-12-23), 2-(3-(difluoromethoxy)phenyl)-5-propylpyridine]	–	np	np	np	np	P. hermaphrodita (L1 viability): lowest concentration tested in which at least 80% of animals were dead (P. hermaphrodita (L1)): 15 µM; C. elegans (L1 viability): lowest concentration tested in which greater than 20% of animals were dead (C. elegans (L1); [1]): 60 µM; C. elegans acute motor phene: concentration at which 10-50% of the animals exhibit convulsion/paralysis phenotypes (C. elegans): 60 μM; P. pacificus (L1 viability): lowest concentration tested in which at least 80% of animals were dead (P. pacificus (L1)): 30 µM; M. incognita (Quick Soil Test): concentration giving 10-20% killing (M. incognita): 45 uM; M. incognita (Hatching Mobility) (M. incognita (eggs)): np
CCCc1cnc(-c2ccc(OC(F)F)cc2)nc1 [IIIss (wact-55-12-25), 2-(4-(difluoromethoxy)phenyl)-5-propylpyrimidine]	–	np	–	–	–	–
CC(C)Cc1ccc(-c2ccc(OC(F)F)cc2)nc1 [IIItt (wact-55-12-26), 2-(4-(difluoromethoxy)phenyl)-5-isobutylpyridine]	30	np	–	–	–	M. incognita (Quick Soil Test): concentration giving 10-20% killing (M. incognita): 45 uM; M. incognita (Hatching Mobility) (M. incognita (eggs)): np
CCCCc1ccc(-c2ccc(OC(F)F)cc2)nc1 [IIIuu (wact-55-12-27), 5-butyl-2-(4-(difluoromethoxy)phenyl)pyridine]	15	np	np	–	–	–
CCCCc1ccc(-c2ccc(OC)cc2)nc1 [IIIw (wact-55-12-28), 5-butyl-2-(4-methoxyphenyl)pyridine]	15	45 µM	–	–	–	M. incognita (Quick Soil Test): concentration giving >80% killing (M. incognita): 45 µM
CCCc1ccc(-c2ccc(SC(F)F)cc2)nc1 [IIIy (wact-55-12-5), 2-(4-((difluoromethyl)thio)phenyl)-5-propylpyridine]	30	np	–	–	–	–
CCCc1ccc(-c2ccc(OC(F)F)cc2)cc1 [IIIz (wact-55-12-6), 4-(difluoromethoxy)-4′-propyl-1,1′-biphenyl]	30	np	np	np	–	P. hermaphrodita (L1 viability): lowest concentration tested in which at least 80% of animals were dead (P. hermaphrodita (L1)): 7.5 µM; C. elegans (dauer viability): concentration where 10-20% death is exhibited (C. elegans (dauer); compounds 55-2, 55-8, 55-9, 55-12-6): 60 μM; C. elegans acute motor phene: concentration at which 10-50% of the animals exhibit convulsion/paralysis phenotypes (C. elegans): 60 μM; M. incognita (Quick Soil Test): concentration giving 10-20% killing (M. incognita): 45 uM
CCCCCCCCCCCCCC(=O)O[C@@H]1[C@@H](C)[C@@]2(O)[C@@H](C=C(CO)C[C@]3(O)C(=O)C(C)=C[C@@H]23)[C@@H]2C(C)(C)[C@]12OC(C)=O [PMA, phorbol myristate acetate, reference compound]	–	–	–	–	–	induction of rubber-band (RB) convulsions (C. elegans; in vivo): fail to induced a RB phenotype
